According to patent publication US6900026B2, “Methods for identifying compounds as antioxidants” (priority 1996, dated 2005):

How the values were obtained:
Sod2CJE(−/−) mice = assay: Survival (lifespan) of Sod2CJE(−/−) mice given daily intraperitoneal test compound; format: in vivo, mouse; details: for mean life-span: Sod2CJE(−/−) pups, Euk-8 daily 30 mg/kg, MnTBAP-treated pups
Description: Mice lacking functional MnSOD have been described by Li et al. (1995) Nature Genetics 11:376-381, incorporated herein by reference. The genotypes of one-day-old pups are determined by genetic analysis of tissue surgically excised from the toe or tail tip (2-3 mm). In these mice the third exon of the Sod2 gene has been deleted, thus, destroying the ability to synthesize an active mitochondrial MnSOD.
Litters were grouped into two sizes: large, >6 pups/litter of mutant, heterozygous and normal pups; and small, ≦6 Sod2CJE(−/−) pups/litter, in which the wild type and heterozygous pups were removed at three days of age to ensure that the homozygous mutant pups had unrestricted access to food and nurturing.
(§1) In most experiments, MnTBAP was prepared for injection by dissolving in 0.1 M NaOH, diluted with sterile water to a dosage level of 5 mg MnTBAP/kg, and administered by daily intra-peritoneal (IP) injections of between 10 and 45 μl, 2 hours post weighing, from 3 days of age. In addition to homozygous mutant animals, both heterozygotes and wild-type animals were injected to serve as controls. Wild-type or heterozygous Sod2CJE pups were sacrificed at the same age as Sod2CJE(−/−) pups to serve as controls.
Mouse pups are injected intraperitoneally with test compounds with a 50 microliter Hamilton syringe and a 31 G needle. The maximum volume administered to pups younger than 6 days of age is 20 μl. Injections are given daily, at the same time per day ±2 hours.
The MnTBAP stock solution is diluted down to the administered dose, which is dependent on body weight. For MnTBAP, the dosage is 5 mg/kg per day. Pups are weighed daily to allow calculation of the appropriate dosage.
Survival analysis was carried out by examining the animals daily to determine mortality, and entering the results into a life-table in the program Statistica (Statsoft, Tulsa, Okla.). Comparison between groups was carried out using the Kaplan and Meier survival function, non-parametric t-tests, and the Gehans Wilcoxon statistic from within the program to compare groups.
In general, experiments are carried out with Sod2CJE(−/−) mice, starting at 3 days of age, and the mice are weighed and divided into test and control groups. Test mice receive the compound for which evaluation as an antioxidant is desired at a dosage which is below the level of toxicity. Unless otherwise indicated, the test compound is administered in a pharmaceutically acceptable carrier by the intraperitoneal route. Unless otherwise determined to be advantageous, the test compound is administered at the same time each day (±2 hours).

Sod2CJE(−/−) animals [1] = assay: Behavioral analysis and neuropathology of treated Sod2CJE(−/−) animals; format: in vivo; details: for neurological and behavioral phenotype: treated Sod2CJE(−/−) mice
Description: Treated Sod2CJE(−/−) animals were observed daily from 10 days through to greater than five weeks for behavioral abnormalities compared to litter mate controls. Daily video recordings of up to 10 minutes were made to longitudinally track the development of behavioral changes. A total of 187 video recordings were made of 63 animals from 10 to 23 days of age.
For pathology, the brains were removed from the sacrificed animals and fixed in 10% buffered formalin for up to 7 days. They were then processed, embedded, and sectioned. In some cases representative sections were made every 20 sections or so at 7 microns thickness throughout the brain and stained with hematoxylin and eosin for examination by light microscopy. In other cases, the entire brain was sectioned at 8 microns throughout. Fifteen Sod2CJE(−/−) brains between 11 and 23 days of age were examined by hematoxylin and eosin staining and light microscopy in coronal, sagittal, or horizontal orientations with 17 controls in a blinded study (4 heterozygotes and 6 wild-types treated; and 2 heterozygotes and 5 wild-types untreated).
During the course of an experiment, each mouse is evaluated daily for weight, lethargy, lack of appetite, its vital signs and for any indication of neurological disorders (observed for circling behavior, dystonia, trembling or the like. Video records can be made for later evaluation, for example for side-by-side comparisons or for observing changes over time. Cardiac histopathology and central nervous system tissue analysis are carried out after death of the animal or after sacrifice of the animal.

Sod2CJE(−/−) animals [2] = assay: Lipid in liver by Oil red-O staining, treated Sod2CJE(−/−) animals; format: in vivo, mouse; parameters: key to Lipid Mode (score): 0=no observable lipid in sections; 1=mild diffuse speckled distribution of lipid; 2=more intense speckled pattern; 3=coalescence of small lipid droplets into large intercellular droplets; 4=massive intercellular lipid droplet accumulation; details: for accumulation of lipid in the liver: treated MnSOD-deficient homozygotes, qualitative; for Lipid % Control / Lipid Mean (score) / Lipid Mode (score): MnTBAP treated Sod2CJE(−/−); for Lipid % Control: control = untreated (−/−) 6-10 days; for Lipid Mean (score) / Lipid Mode (score): score 0-4
Source text: (see also Table 2). […] The level of lipid in liver sections was scored as follows: 0=no observable lipid in sections, 1=mild diffuse speckled distribution of lipid, 2=more intense speckled pattern, 3=coalescence of small lipid droplets into large intercellular droplets, and 4=massive intercellular lipid droplet accumulation. Wild-type or heterozygotes treated with MnTBAP for 3 weeks had no observable difference in the morphology of the liver compared to untreated controls (+/+or +/−). The livers of 25 MnTBAP treated Sod2CJE(−/−) animals were examined at 12, 14 and 17 days of age (Table 2) and compared with treated wild type animals.
Assessment of the effect of MnTBAP treatment on liver morphology was carried out by blind assessment of wild-type and heterozygous animals chronically treated with compound for 3 weeks. Hematoxylin and Eosin stained sections from 27 treated homozygous normal (+/+) and heterozygous (+/−) animals were compared with 2 untreated control animals. To evaluate lipid in the liver of treated homozygous mutant MnSOD(−/−) animals, 8 u frozen sections were prepared and stained with Oil red O [Li et al. (1995) supra]. Each section was evaluated for the quantity and size of lipid droplets by arbitrarily scoring with a numerical value (Table 2). The ratings of multiple animals were then averaged.

[3] = test system: succinate dehydrogenase (SDH, Complex II); assay: Histochemical staining of succinate dehydrogenase (SDH, Complex II) in tissue of treated MnSOD-deficient homozygotes; format: in vivo, mouse
Source text: Fat accumulates in the liver, where it can be detected by Oil Red O staining. […] By contrast, in Euk-8 treated animals both the lipid accumulation in the liver and SDH inhibition are rescued.

[4] = test system: control animals (+/+, +/−); assay: Pathology of liver, brain and heart in treated control animals (+/+, +/−); format: in vivo, mouse; details: control animals (+/+, +/−) treated with MnTBAP
Description: as §1
For pathology, the brains were removed from the sacrificed animals and fixed in 10% buffered formalin for up to 7 days. They were then processed, embedded, and sectioned. In some cases representative sections were made every 20 sections or so at 7 microns thickness throughout the brain and stained with hematoxylin and eosin for examination by light microscopy. In other cases, the entire brain was sectioned at 8 microns throughout. […]
Assessment of the effect of MnTBAP treatment on liver morphology was carried out by blind assessment of wild-type and heterozygous animals chronically treated with compound for 3 weeks. […] Each section was evaluated for the quantity and size of lipid droplets by arbitrarily scoring with a numerical value (Table 2). […]

[5] = in vitro; cited from earlier work
[6] = Transmission of orally administered compound to the milk of nursing mothers; format: in vivo, mouse
Source text: The skilled artisan understands how to test a particular compound for its toxicity in a particular mammal, for its ability to cross the blood-brain barrier and for its ability to enter the bloodstream and/or the cerebrospinal fluid. Preferred compounds are those which readily enter circulation and the central nervous system so that maximum amelioration of any disorder or disease resulting from oxidative damage, especially from superoxide radical.

[7] = mice, after the barrier is established at about 7-12 days of age; cited from earlier work
Sod2CJE(−/−) animals [8] = assay: Cardiac measurements and histology in treated Sod2CJE(−/−) animals; format: in vivo, mouse; details: 20-21 days of age
Description: Cardiac dimensions were measured at 21 days of age for wild-type and heterozygous animals. These were compared with homozygous mutant animals treated with MnTBAP as described [Li et al. (1995) supra].

cells = details: in vitro; cited from earlier work
[9] = SOD2−/− mice treated with free radical scavenging compounds (Table 4)
[10] = Sod2CJE(−/−), Large litter size (>6 pups), with MnTBAP, N=16
[11] = Sod2CJE(−/−), Small litter size (≦6 pups), with MnTBAP, N=15
[12] = Sod2CJE(−/−), all litter sizes, with MnTBAP 5 mg/kg daily IP, N=31, days of age

## [Cl-].[Mn+3].[O-]c1ccccc1C=NCCN=Cc1ccccc1[O-] [Euk-8]
Sod2CJE(−/−) mice; [9]
  Mean Lifespan: 22 days
Sod2CJE(−/−) mice
  mean life-span: 22 days
Sod2CJE(−/−) animals [1]; concluded from beneficial effects on neuronal function in Sod2CJE(−/−) mouse
  crossing of the blood brain barrier: crosses the blood brain barrier
Sod2CJE(−/−) animals [1]
  neurological and behavioral phenotype: rescue of the neurological and behavioral phenotype
Sod2CJE(−/−) animals [1]; treated Sod2CJE(−/−) mouse, at 17 days
  spongiform encephalopathy: absent
Sod2CJE(−/−) animals [2]
  accumulation of lipid in the liver: rescued
[3]
  tissue SDH inhibition: rescued

## O=C(O)c1ccc(-c2c3nc(c(-c4ccc(C(=O)O)cc4)c4ccc([nH]4)c(-c4ccc(C(=O)O)cc4)c4nc(c(-c5ccc(C(=O)O)cc5)c5ccc2[nH]5)C=C4)C=C3)cc1.[Mn] [MnTBAP, Manganese 5,10,15,20-tetrakis(4-benzoic acid) porphyrin]
[4]
  toxicity (pathological changes in liver or brain): not toxic
[5]
  superoxide-degrading activity relative to Sod1/Sod2 when compared by weight: about 10%
Sod2CJE(−/−) mice; MnSOD(−/−) mice, 5 mg/kg daily intraperitoneal, all litters, n=31, ±SD
  mean age of survival: 16.4 ± 5.8 days
Sod2CJE(−/−) mice; MnSOD(−/−) mice, 5 mg/kg daily intraperitoneal, n=31
  proportion of mice that lived to greater than or equal to 20 days of age: 70%
Sod2CJE(−/−) mice; [9]
  Mean Lifespan: 14 days
Sod2CJE(−/−) mice
  mean life-span: 16 days
Sod2CJE(−/−) mice; [10]
  Mean Lifespan: 16.1
  Median (lifespan): 21
Sod2CJE(−/−) mice; [11]
  Mean Lifespan: 16.6
  Median (lifespan): 19
Sod2CJE(−/−) mice; [12]
  Mean Lifespan: 16.4
  Median (lifespan): 20
Sod2CJE(−/−) mice; litters of more than six pups (unrestricted), ±SD
  mean age of survival: 16.1 ± 6.6 days
Sod2CJE(−/−) mice; litters with six or less pups (restricted), ±SD
  mean survival: 11.4 ± 4.8 days
[6]
  transmission to the milk of nursing mothers: insufficient transmission
Sod2CJE(−/−) animals [1]
  neurological and behavioral phenotype: progressive motor impairment
[7]
  crossing of the blood-brain barrier: does not cross the blood-brain barrier
Sod2CJE(−/−) animals [8]
  effect on cardiac defect (dilated cardiomyopathy): prevented the cardiac defect
cells
  permeability to cells: permeable to cells
Sod2CJE(−/−) animals [2]; 25 treated animals examined at 12, 14 and 17 days of age (2/25)
  proportion of treated Sod2CJE(−/−) animals with liver lipid levels comparable to untreated Sod2CJE(−/−) animals of 6-10 days: 8%
Sod2CJE(−/−) animals [2]; 12 days old, n=9
  Lipid % Control: 23%
  Lipid Mean (score): 0.9
  Lipid Mode (score): 0
Sod2CJE(−/−) animals [2]; 14 days old, n=8
  Lipid % Control: 23%
  Lipid Mean (score): 0.9
  Lipid Mode (score): 0.5
Sod2CJE(−/−) animals [2]; 17 days old, n=8
  Lipid % Control: 40%
  Lipid Mean (score): 1.6
  Lipid Mode (score): 2
Sod2CJE(−/−) animals [2]
  accumulation of lipid in the liver: reduced
[3]
  tissue SDH inhibition: still inhibited
